Laboratory results published in patent US9708314B2, “Heterocyclic amide compound” (NISSAN CHEMICAL INDUSTRIES, LTD., priority 2013, dated 2017).

Tests used:
Assay type in all cases: in vivo
Glycine max = assay: Test Example 4: effect on crop by application to foliage (diluvial soil, plastic box); conditions: application to foliage, 320 g/ha
Outline: (§1)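 Emulsion-formulated compound, diluted to a predetermined g/ha dose, applied by small sprayer to leaves and stems of 14-day-old seedlings grown in sterilized diluvial soil. Effect rated on 0–5 herbicidal-ratio scale three weeks on.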

Brassica campestris L. = assay: as above; conditions: application to foliage, 320 g/ha
Outline: as §1

Zea mays = assay: as above; conditions: application to foliage, 320 g/ha
Outline: as §1

Triticum aestivum = assay: as above; conditions: application to foliage, 320 g/ha
Outline: as §1

[1] = test system: directly sowed Oryza sativa; assay: as above; conditions: application to foliage, 320 g/ha
Outline: as §1

[2] = test system: Beta vulgaris ssp. vulgaris; assay: as above; conditions: application to foliage, 320 g/ha
Outline: as §1

[3] = test system: Echinochloa oryzacola Vasing.; assay: Test Example 1: herbicidal activity, application before weed generation in submerged conditions; conditions: Seventeenth Table; application herbicide amount 320 g/ha
Outline: (§2)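 Rating, on a six-step scale from almost no effect (0) to almost completely withered (5), was made three weeks after pre-emergence treatment. Treatment was surface application to flooded pots at g/ha rates, with plants kept at 25° C. to 30° C.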

Scirpus juncoides = assay: as above; conditions: Seventeenth Table; application herbicide amount 320 g/ha
Outline: as §2

Monochoria vaginalis = assay: as above; conditions: Seventeenth Table; application herbicide amount 320 g/ha
Outline: as §2

Row | SMILES | effect on crop, c (Glycine max) (Glycine max) | effect on crop, g (Brassica campestris L.) (Brassica campestris L.) | effect on crop, b (Zea mays) (Zea mays) | effect on crop, e (Triticum aestivum) (Triticum aestivum) | effect on crop, d (directly sowed Oryza sativa) [1] | effect on crop, f (Beta vulgaris ssp. vulgaris) [2] | A (Echinochloa oryzicola Vasing.) herbicidal ratio grade [3] | B (Scirpus juncoides) herbicidal ratio grade (Scirpus juncoides) | C (Monochoria vaginalis) herbicidal ratio grade (Monochoria vaginalis)
1 | Cn1nnnc1NC(=O)c1ccc(C(F)(F)F)n2c(=O)n(C)nc12 [6-002] | 0 (Herbicidal ratio of 5% or less (almost no effect)) | 3 (Herbicidal ratio of 40% or more and less than 70%) | 0 (Herbicidal ratio of 5% or less (almost no effect)) | 0 (Herbicidal ratio of 5% or less (almost no effect)) | 3 (Herbicidal ratio of 40% or more and less than 70%) | 3 (Herbicidal ratio of 40% or more and less than 70%) | 4 (Herbicidal ratio of 70% or more and less than 90%) | 3 (Herbicidal ratio of 40% or more and less than 70%) | 2 (Herbicidal ratio of 20% or more and less than 40%)
2 | CCn1nc2c(C(=O)Nc3nnnn3C)ccc(C(F)(F)F)n2c1=O [6-004] | 0 (Herbicidal ratio of 5% or less (almost no effect)) | 3 (Herbicidal ratio of 40% or more and less than 70%) | 0 (Herbicidal ratio of 5% or less (almost no effect)) | 1 (Herbicidal ratio of 5% or more and less than 20%) | 4 (Herbicidal ratio of 70% or more and less than 90%) | 2 (Herbicidal ratio of 20% or more and less than 40%) | 0 (Herbicidal ratio of 5% or less (almost no effect)) | 0 (Herbicidal ratio of 5% or less (almost no effect)) | 2 (Herbicidal ratio of 20% or more and less than 40%)
3 | Cc1nnc(NC(=O)c2ccc(C(F)(F)F)n3nc(C(C)C)nc23)o1 [7-001] | 0 (Herbicidal ratio of 5% or less (almost no effect)) | 0 (Herbicidal ratio of 5% or less (almost no effect)) | 0 (Herbicidal ratio of 5% or less (almost no effect)) | 0 (Herbicidal ratio of 5% or less (almost no effect)) | 0 (Herbicidal ratio of 5% or less (almost no effect)) | 0 (Herbicidal ratio of 5% or less (almost no effect)) | 0 (Herbicidal ratio of 5% or less (almost no effect)) | 2 (Herbicidal ratio of 20% or more and less than 40%) | 4 (Herbicidal ratio of 70% or more and less than 90%)
4 | CC(C)c1nc2c(C(=O)Nc3nnnn3C)ccc(C(F)(F)F)n2n1 [7-002] | 0 (Herbicidal ratio of 5% or less (almost no effect)) | 3 (Herbicidal ratio of 40% or more and less than 70%) | 0 (Herbicidal ratio of 5% or less (almost no effect)) | 0 (Herbicidal ratio of 5% or less (almost no effect)) | 2 (Herbicidal ratio of 20% or more and less than 40%) | 4 (Herbicidal ratio of 70% or more and less than 90%) | 3 (Herbicidal ratio of 40% or more and less than 70%) | 3 (Herbicidal ratio of 40% or more and less than 70%) | 4 (Herbicidal ratio of 70% or more and less than 90%)
